From patent US20130209368A1, “NEAR INFRARED FLUORESCENT PARTICLES AND USES THEREOF” (YISSUM RESEARCH DEVELOPMENT COMPANY OF THE HEBREW …, priority 2010, published 2013)

Legend:
[1] = Absorption of ICG over time at light and at dark; format: physicochemical
Description: Absorbance spectra of the samples were taken using a Cary 100 Biospectrophotometer, in a 1 cm polystyrene cell, and a scan rate of 600 nm/min.
The red shift is accompanied with quenching of fluorescence, i.e., the larger the red shift the lower the fluorescence intensity. Because the fluorescence intensity of ICG-liposomes was greater than that of unbound ICG molecules (aqueous solution), the quantum yield ratio between the two states in which ICG is present was determined, for a concentration of 1.28×10^−3 mM. As mentioned above, ICG is poorly stable in aqueous solutions due to degradation, and therefore, in order to evaluate the stability of the ICG-adsorbed liposomes, the absorption of this fluorescent probe, when dissolved in an aqueous solution or adsorbed to the liposomes, was measured at light and at dark over time.

A431 cells = test: EGF-FITC labeling of A431 cells by fluorescent microscopy; format: cell-based; conditions: 10 ng/ml, 15 min; reduced by excess unlabeled EGF
Description: (§1) FIGS. 7A-7D show purification and bioactivity validation of EGF-FITC. Purification of FITC-labeled EGF was performed in two sequential steps of desalting (7A) and ion exchange (7B). A431 cultures were incubated with 10 ng/ml for 10 min with native (EGF) and FITC-labeled EGF (EGF-FITC) or left untreated. The phosphorylation of Erk (p-Erk) was evaluated using Western blotting. Total Erk protein (pan-Erk) was measured for internal control purposes to assure loading of equal protein quantities (7C). A431 cells were incubated for 15 min with 10 ng/ml EGF-FITC in the presence or absence of excess unlabeled EGF (500 ng/ml) or left untreated. The cultures were visualized using fluorescent microscopy at 40× magnification (7D).
In order to study the binding of cetuximab-labeled ICG-adsorbed liposomes to cell overexpressing EGFR we prepared FITC-labeled EGF (EGF-FITC) to be used as positive control. EGF-FITC was purified from excess FITC and unlabeled FOP via desalting and ion exchange purification steps. Following desalting, the fraction containing EGF and EGF-FITC was collected (FIG. 7A) and further processed to separate labeled from unlabeled EGF. […] Upon purification of EGF-FITC, the bioactivity of the labeled protein was evaluated. […] Following validation of the bioactivity of the labeled protein, EGF-FITC was used in the next experiments as a positive control.

[2] = test system: Erk phosphorylation, an EGFR downstream signaling molecule, in A431 cells; test: EGF-FITC bioactivity: Erk phosphorylation by Western blotting; format: cell-based; conditions: A431 cultures, 10 ng/ml for 10 min
Description: as §1, with “The cultures were visualized using fluorescent microscopy at 40× magnification (7D).” left out
Western blotting was performed as described by Lecht et al. (2010). Briefly, total cellular protein was extracted following lysis of the A431 cells and quantified using the Bradford reagent assay (Bio-Rad, Hercules, Calif., USA). For Western blotting, equal quantities of protein (40 μg) were loaded on 10% polyacrylamide gels, separated by SDS-PAGE (100 V for 1.5 hrs), and transferred on ice to nitrocellulose membranes (90 V for 1.5 hrs) (Whatman, Germany). […]
In order to study the binding of cetuximab-labeled ICG-adsorbed liposomes to cell overexpressing EGFR we prepared FITC-labeled EGF (EGF-FITC) to be used as positive control. […] Upon purification of EGF-FITC, the bioactivity of the labeled protein was evaluated. […]

| Compound | ICG absorption over time [1] | labeling of A431 cells (A431 cells) | Erk phosphorylation [2] |
| --- | --- | --- | --- |
| CC1(C)C(/C=C/C=C/C=C/C=C2\N(CCCCS(=O)(=O)[O-])c3ccc4ccccc4c3C2(C)C)=[N+](CCCCS(=O)(=O)[O-])c2ccc3ccccc3c21.[Na+] [ICG, Indocyanine green] | decreases over time both in light and in dark |  |  |
| EGF-FITC: human recombinant EGF covalently labeled with FITC, used as positive control |  | highly specific labeling | able to induce Erk phosphorylation |
